Measured values as given in US10501464B2, “7-oxo-6-(sulfooxy)-1,6-diazabicyclo[3.2.1]octane-2-carboxamide containing compounds and their use in treating bacterial infections” (WOCKHARDT LIMITED, priority 2015, dated 2019).
Counter-ions that a name gives are not always drawn. Like-named read-outs stand apart in the source and are kept apart here.

Legend:
Assay in all cases: Antibacterial activity, MIC by agar dilution (CLSI)
Assay type in all cases: cell-based
E. coli M 49 = conditions: compound tested alone
Method: (§1) The biological activity of representative compounds according to the invention against various bacterial strains was investigated. In a typical study, overnight grown bacterial cultures were diluted appropriately and inoculated on the agar media containing doubling dilutions of the test compounds. Observations for growth or no growth was performed after 16-20 hours of incubation at 35±2° C. in the ambient air. The overall procedure was performed as per Clinical and Laboratory Standards Institute (CLSI) recommendations, (Clinical and Laboratory Standards Institute (CLSI), Performance Standards for Antimicrobial Susceptibility Testing, 20th Informational Supplement, M07-A9, Volume 32, No. 2, 2012). Molten Mueller Hinton Agar (BD, USA) containing serial dilutions of each antibacterial agent were poured on to the plates and allowed to solidify. Appropriate suspensions from the freshly grown cultures were prepared in normal saline so that about 10^4CFU/spot of the organism was delivered on to the drug containing agar plates using automated multipoint inoculator (Mast, UK). The plates were incubated in Biochemical oxygen demand (BOD) incubator at 37° C. for 18 hours and then examined for growth.
(§2) Method for the determination of MIC: The Minimum Inhibitory Concentration (MIC) determination for the combinations was carried out in Muller Hinton Agar (MHA) (BD, USA) according to Clinical and Laboratory Standards Institute (CLSI) recommendations, (Clinical and Laboratory Standards Institute (CLSI), Performance Standards for Antimicrobial Susceptibility Testing, 20th Informational Supplement, M 100-S20, Volume 30, No. 1, 2010). In short, the test strains were adjusted to deliver about 10^4CFU per spot with a multipoint inoculator (Applied Quality Services, UK). The plates were poured with MHA containing doubling concentration range of representative compounds according to present invention. The plates were inoculated and were incubated at 35° C. for 18 hour. […] The Table 2 depicts the antibacterial activity profile of compounds according to present invention against various multidrug resistant bacterial strains.

E. coli M 50 = conditions: compound tested alone
Method: as §1, §2

K. pneumoniae H 523 = conditions: compound tested alone
Method: as §1, §2

K. pneumoniae H 522 = conditions: compound tested alone
Method: as §1, §2

E. coli 13351 = conditions: compound tested alone
Method: as §1, §2

K. pneumoniae H 525 = conditions: compound tested alone
Method: as §1, §2

E. coli 7 MP = conditions: compound tested alone
Method: as §1, §2

E. coli M 36 = conditions: compound tested alone
Method: as §1, §2

K. pneumoniae H 521 = conditions: compound tested alone
Method: as §1, §2

E. coli 13352 = conditions: compound tested alone
Method: as §1, §2

[1] = system: K. pneumoniae ATCC 700603
Method: as §1, §2

E. coli M 138 = conditions: compound tested alone
Method: as §1, §2

P. mirabilis S 137B = conditions: compound tested alone
Method: as §1, §2

E. coli 13353 = conditions: compound tested alone
Method: as §1, §2

[2] = Escherichia coli, M49, E. coli M 49, read-out: MIC
[3] = Escherichia coli, M50, E. coli M 50, read-out: MIC
[4] = Klebsiella pneumoniae, H523, K. pneumoniae H 523, read-out: MIC
[5] = Klebsiella pneumoniae, H522, K. pneumoniae H 522, read-out: MIC
[6] = Escherichia coli, 13351, E. coli 13351, read-out: MIC
[7] = Klebsiella pneumoniae, H525, K. pneumoniae H 525, read-out: MIC
[8] = Escherichia coli, 7MP, read-out: MIC
[9] = Escherichia coli, M36, E. coli M 36, read-out: MIC
[10] = Klebsiella pneumoniae, H521, K. pneumoniae H 521, read-out: MIC
[11] = Escherichia coli, 13352, E. coli 13352, read-out: MIC
[12] = Klebsiella pneumoniae, ATCC700603, compound tested alone, read-out: MIC
[13] = Escherichia coli, M138, E. coli M 138, read-out: MIC
[14] = Proteus mirabilis, S137B, read-out: MIC
[15] = Escherichia coli, 13353, E. coli 13353, read-out: MIC

Compound	MIC (E. coli M 49; [2]) [µg/mL]	MIC (E. coli M 50; [3]) [µg/mL]	MIC (K. pneumoniae H 523; [4]) [µg/mL]	MIC (K. pneumoniae H 522; [5]) [µg/mL]	MIC (E. coli 13351; [6]) [µg/mL]	MIC (K. pneumoniae H 525; [7]) [µg/mL]	MIC (E. coli 7 MP; [8]) [µg/mL]	MIC (E. coli M 36; [9]) [µg/mL]	MIC (K. pneumoniae H 521; [10]) [µg/mL]	MIC (E. coli 13352; [11]) [µg/mL]	MIC [1, 12] [µg/mL]	MIC (E. coli M 138; [13]) [µg/mL]	MIC (P. mirabilis S 137B; [14]) [µg/mL]	MIC (E. coli 13353; [15]) [µg/mL]	further results
O=C(NNC(=O)[C@@H]1CC[C@@H]2CN1C(=O)N2OS(=O)(=O)O)[C@@H]1C[C@H](n2cnnn2)CN1 [Example 24]	16	4	4	4	2	4	8	4	4	2	> 32	4	> 32	4	
O=C(NNC(=O)[C@@H]1CC[C@@H]2CN1C(=O)N2OS(=O)(=O)O)[C@@H]1C[C@H](n2ccnn2)CN1 [Example 26]	> 32	4	16	8	2	16	8	4	8	2	> 32	4	> 32	2	
O=C(NNC(=O)[C@@H]1CC[C@@H]2CN1C(=O)N2OS(=O)(=O)O)C1C[C@H](n2ccnc2)CN1 (some centres unmarked) [Example 28]	8		4	4		4			4		> 32	2	> 32		MIC (E. coli M 50; E. coli M 50): 2 µg/mL; MIC (E. coli 13351; E. coli 13351): 1 µg/mL; MIC (E. coli 7 MP): 4 µg/mL; MIC (E. coli M 36; E. coli M 36): 1 µg/mL; MIC (E. coli 13352; E. coli 13352): 1 µg/mL; MIC (E. coli 13353; E. coli 13353): 1 µg/mL
O=C(NOC[C@@H]1C[C@H](n2ncnn2)CN1)[C@@H]1CC[C@@H]2CN1C(=O)N2OS(=O)(=O)O [Example 1, (2S,5R)-N-{[(2S,4S)-4-(2H-tetrazol-2-yl)pyrrolidin-2-yl]methyloxy}-7-oxo-6-(sulfooxy)-1,6-diazabicyclo[3.2.1]octane-2-carboxamide]	16	2	4	4	4	4	8	1	4	4	> 32	4	> 32	2	
O=C(NOCC1C[C@@H](N2CCCCC2)CN1)[C@@H]1CC[C@@H]2CN1C(=O)N2OS(=O)(=O)O (some centres unmarked) [Example 19]	32	8	8	8	8	8	> 32	8	8	8	> 32	8		4	
CN1CCN([C@H]2CNC(CONC(=O)[C@@H]3CC[C@@H]4CN3C(=O)N4OS(=O)(=O)O)C2)CC1 (some centres unmarked) [Example 21]	16	8	4	4	8	8	16	4	8	8	> 32	4		4	
O=C(NOC[C@@H]1C[C@H](n2nccn2)CN1)[C@@H]1CC[C@@H]2CN1C(=O)N2OS(=O)(=O)O [Example 5]	8	1	4	4	1	4	2	1	4	1	> 32	1	> 32	1	
O=C(NNC(=O)[C@@H]1CC[C@@H]2CN1C(=O)N2OS(=O)(=O)O)[C@@H]1C[C@H](n2ccnc2)CN1 [Example 30]	16	4	2	2	4	2	16	4	2	8	> 32	8	> 32	4	
O=C(NNC(=O)[C@@H]1CC[C@@H]2CN1C(=O)N2OS(=O)(=O)O)C1C[C@H](n2ccnc2)CN1 (some centres unmarked) [Example 34]															MIC (E. coli M 49; E. coli M 49): 4 µg/mL; MIC (E. coli M 50; E. coli M 50): 8 µg/mL; MIC (K. pneumoniae H 523; K. pneumoniae H 523): 8 µg/mL; MIC (K. pneumoniae H 522; K. pneumoniae H 522): 8 µg/mL; MIC (E. coli 13351; E. coli 13351): 4 µg/mL; MIC (K. pneumoniae H 525; K. pneumoniae H 525): 8 µg/mL; MIC (E. coli 7 MP): 16 µg/mL; MIC (E. coli M 36; E. coli M 36): 4 µg/mL; MIC (K. pneumoniae H 521; K. pneumoniae H 521): 8 µg/mL; MIC (E. coli 13352; E. coli 13352): 8 µg/mL; MIC ([1]; compound tested alone): >32 µg/mL; MIC (P. mirabilis S 137B): >32 µg/mL; MIC (E. coli 13353; E. coli 13353): 4 µg/mL
O=C(NOCC1C[C@@H](N2CCNCC2)CN1)[C@@H]1CC[C@@H]2CN1C(=O)N2OS(=O)(=O)O (some centres unmarked) [Example 20]	16	8	8	8	8	8	16	4	8	16	> 32	4		8	
CN1CCN([C@H]2CNC(CONC(=O)[C@@H]3CC[C@@H]4CN3C(=O)N4OS(=O)(=O)O)C2)CC1 (some centres unmarked) [Example 22]															MIC (E. coli M 49; E. coli M 49): 8 µg/mL; MIC (E. coli M 50; E. coli M 50): 8 µg/mL; MIC (K. pneumoniae H 523; K. pneumoniae H 523): 8 µg/mL; MIC (K. pneumoniae H 522; K. pneumoniae H 522): 8 µg/mL; MIC (E. coli 13351; E. coli 13351): 8 µg/mL; MIC (K. pneumoniae H 525; K. pneumoniae H 525): 8 µg/mL; MIC (E. coli 7 MP): 16 µg/mL; MIC (E. coli M 36; E. coli M 36): 4 µg/mL; MIC (K. pneumoniae H 521; K. pneumoniae H 521): 8 µg/mL; MIC (E. coli 13352; E. coli 13352): 16 µg/mL; MIC ([1]; compound tested alone): >32 µg/mL; MIC (E. coli M 138; E. coli M 138): 8 µg/mL; MIC (E. coli 13353; E. coli 13353): 4 µg/mL
O=C(NOCC1C[C@H](N2CCCCC2)CN1)[C@@H]1CC[C@@H]2CN1C(=O)N2OS(=O)(=O)O (some centres unmarked) [Example 18]	16	2	2	2	2	2	4	2	2	2	> 32	2		1	
O=C(NOCC1C[C@H](N2CCOCC2)CN1)[C@@H]1CC[C@@H]2CN1C(=O)N2OS(=O)(=O)O (some centres unmarked) [Example 17]	16	8	8	8	8	8	16	4	8	8	> 32	4		4	
O=C(NOC[C@H]1C[C@H](N2CCOCC2)CN1)[C@@H]1CC[C@@H]2CN1C(=O)N2OS(=O)(=O)O [Example 2, Trifluoro acetic acid salt of (2S,5R)-N-{[(2R,4S)-4-(morpholin-4-yl)pyrrolidin-2-yl]methoxy}-7-oxo-6-(sulfooxy)-1,6-diazabicyclo[3.2.1]octane-2-carboxamide]	4	1	1	1	1	1	2	1	1	1	> 32	1		1	
